Data published in patent publication US20230256017A1, “METHODS OF MAKING CHIMERIC ANTIGEN RECEPTOR-EXPRESSING CELLS” (Novartis AG, priority 2020, published 2023).

Assays:
Format in all cases: cell-based
T cells [1] = experiment: ARM-BCMA CAR expression kinetics in vitro with or without AZT (FACS); conditions: 30 µM and 100 µM doses
Procedure: In contrast to TM which measures lentiviral integration of the CAR transgene after 8-9 days, in the ARM process, the lentiviral transgene may not be fully integrated and truly expressed within 24h post lentiviral addition, as lentiviral pseudotransduction could occur (Haas DL, et al., (2000) Mol Ther; 2(1):71-80; Galla M, et al., (2004) Mol Cell; 16(2):309-15). […] Flow cytometry (FACS) analyses were performed to detect CAR surface expression at 24 h, 48 h, 72 h, 96 h and 168 h post T cell activation and transduction with the lentiviral vector. In some cases, ARM-BCMA CAR and an aliquot of this product were frozen down immediately upon harvest for additional characterization in other assays.

T cells [2] = experiment: T cell expansion with cytokines after TCR stimulation (cell surface staining)
Procedure: Previously frozen T cells were thawed and contacted with αCD3/αCD28 dynal beads (cell to bead ratio of 1 to 3) in the presence of indicated cytokines at day 0. From day 3, twice more T cell growth media (RPMI1640, 10% FBS, 2 mM L-glutamin, 100 µM non-essential amino acids, 1 mM sodium pyruvate, 10 mM Hepes, 55 µM β-mercaptoethanol, 10% FBS, and 100 U/ml of penicillin-streptomycin) was added to the plate with indicated cytokines (without cytokine, rhIL2 (50 IU/ml, Novartis), IL6 (10 ng/ml, R&D systems), IL7 (10 ng/ml, Peprotech), IL15 (10 ng/ml, Peprotech), and IL21 (10 ng/ml, Peprotech)) at day 3, 5, 6, 9, 12, 15, and 18.
Cells were harvested at indicated time points and then stained with live/dead dye (eFluro780, eBioscience), CD3 (BioLegend, clone#: OKT3), CD4 (BioLegend, clone#: OKT4), CD8 (BD Bioscience, clone#: RPA-T8), CD45RO (BioLegend, clone#: UCHL1), CCR7 (BioLegend, clone#: G043H7), CD27 (BD Horizon, clone#: L128), CD127 (BioLegend, clone#: A019D5), CD57 (BioLegend, clone#: HCD57), CD126 (BioLegend, clon#: UV4), and CD130 (R&D Systems, clone#: 28126) antibodies. The cells were acquired by FACS Fortessa and then FlowJo program was used for data analysis.

T cells [3] = experiment: Cytokine process: T cell differentiation status and CAR transduction by flow cytometry; conditions: purified T cells incubated with cytokine, no other activation stimulus
Procedure: The cells were immunophenotyped for T cell differentiation status and transduction of the CAR was assessed using flow cytometry. The cells were washed, viability dye was added followed by the antibody cocktail (Table 20), and the plates were incubated for 20 minutes at room temperature. After the incubation, the cells were washed twice and fixed prior to being analyzed on the BD fortessa.

Cc1cn([C@H]2C[C@H](N=[N+]=[N-])[C@@H](CO)O2)c(=O)[nH]c1=O [AZT, 3′-azido-3′-deoxythymidine]
inhibition of CAR expression (T cells [1]): effectively inhibit CAR expression

IL15: cytokine present during activation of T cells with αCD3αCD28 beads
expansion of IL6Rβ expressing cells (T cells [2]; αCD3/αCD28 beads plus cytokine): enhanced expansion of IL6Rβ expressing cells | T cell expansion (T cells [2]; αCD3/αCD28 beads plus indicated cytokine): enhanced T cell expansion, with IL15 showing the greatest enhancement

IL-15: cytokine used in T cell culture
maintenance of self-renewing T cells (CD45RO-CCR7+) (T cells [3]): maintained self-renewing T cells in vitro
